The text below walks through data of patent publication US20080063643A1, “Peptide Derived From Hepatitis C Virus” (priority 2003, published 2008).

The subject of test [1] is peptide-specific IgG in the serum. Nature of the test: ELISA of peptide-specific IgG in sera of HCV patients and healthy donors (Example 1). Type of test: binding, human. Summed up:
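Sera from 12 HCV patients and 10 healthy donors, diluted 1:100–1:400, tested by ELISA on plates coated with DSS-crosslinked HLA-A2/A24-motif HCV 1b peptides (20 µg/well); HIV peptide as negative control. Incubated 2 h at 37 °C; detection via rabbit anti-human IgG, HRP-polymer anti-rabbit, TMB. Cutoff = healthy-donor mean OD ± 3 SD.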
A general note: In an ELISA, binding on a coated surface is turned into a signal by an enzyme label.

A further test has as its system peptide-reactive IgG. Nature of the test: ELISA of anti-C-35 and anti-NS5A-2132 IgG in sera: cross reactivity, HLA and genotype restriction (Example 3). In kind it is binding, human. The text has this:
Two peptides with a purity of 90% or more were purchased from BIOSYNTHESIS (Lewisville, Tex.): HCV-1b core protein 35-44 ([…] (SEQ ID NO: 1) capable of inducing an HLA-A2-restricted CTL activity) and HCV-1b NS5A protein 2132-2140 ([…] (SEQ ID NO: 2) capable of inducing an HLA-A24-restricted CTL activity). As a negative control, peptides derived from HIV with an HLA-A2-binding motif ([…] (SEQ ID NO: 64)) and an HLA-A24-binding motif ([…] (SEQ ID NO: 63)) were used.
The level of peptide-specific IgG was measured by an enzyme-linked immunosorbent assay (ELISA). Briefly, each peptide was dissolved in dimethyl sulfoxide (DMSO) and stored at −20° C. The peptide (20 μg/well) diluted with 0.1 M carbonate buffer containing disuccinimidyl suberate (DSS) (PIERCE, Rockford, Ill.) as a chemical crosslinker was bound to an ELISA plate. The wells were washed 3 times with 0.05% Tween 20/PBS (PBST). Then, the plate was blocked overnight at 4° C. with Block Ace (Yukijirushi, Tokyo, Japan). A serum sample was diluted 1:100, 1:200 or 1:400 with 0.05% Tween 20/Block Ace, and 100 μl/well of the sample was added to each well. After the sample was incubated at 37° C. for 2 hours, the plate was washed 9 times with PBST, and further incubated at 37° C. for 2 hours with 100 μl/well of a 1:1000 diluted rabbit anti-human IgG (γ-chain specific) (DAKO Glostrup, Denmark). After the plate was washed 9 times, 100 μl/well of a 1:100 diluted anti-rabbit IgG-conjugated horseradish peroxidase-dextran polymer (En Vision, DAKO) was added to each well, and then the plate was incubated at room temperature for 40 minutes. After the plate was washed, 100 μl/well of a tetramethylbenzidine substrate solution (KPL, Guildford, UK) was added, and the reaction was stopped by the addition of 1.0 M phosphoric acid.
The cross reactivity of two antibodies reactive to the peptides derived from HCV-1b was examined. The sera obtained from 60 HCV patients and patients who are not included in the cohort study (CH, n=22, LC, n=21 and HCC, n=17) were examined for reactivity to the peptides of the core 35-44 (C-35) and NS5A 2132-2140 (NS5A-2132). The sera were also obtained from 24 subjects with an autoimmune disease, 17 cases of HBV infection and 10 cases of HTLV-1 infection. The sera obtained from 37 HDs were used as a negative control. The level of peptide-reactive IgG contained in the serially diluted serum samples was measured by ELISA. The results are reported by the absorbance (OD) of each sample. The representative results of OD at a serum dilution of 100:1 are shown. The cut-off value was set at 0.093 (mean+2 SD of OD from HDs). The statistical analysis was carried out using the χ^2-test. Values of P<0.05 were considered statistically significant.
Then, the correlation between the HLA-class IA phenotype and the level of anti-C-35 IgG or anti-NS5A-2132 IgG was examined in 29 patients with a disease associated with HCV. The HLA-class IA phenotype was determined by a standard serological method. Nine patients were HLA-A2^+, 13 patients were A24^+, and the remaining 7 patients were A2^−-A24^−. The levels of Anti-C-35 and anti-NS5A-2132 were measured by a standard ELISA and the OD value of each patient at a serum dilution of 100:1 is shown in the figure.
Also the correlation between the HCV genotype and the level of anti-C-35 IgG or anti-NS5A-2132 IgG was examined in a double blind study in patients infected with HCV-1b (n=29), HCV-2a (n=16) and HCV-2b (n=3). The HCV genotype was determined by directly sequencing HCV in the serum of the patient. The levels of anti-C-35 and anti-NS5A-2132 were measured by a standard ELISA and the OD value of each patient at a serum dilution of 100:1 is shown. The cut-off value was set at 0.093 (mean+2 SD of OD from HDs).
Then, the sera of CH (n=24), LC (n=22), HCC (n=26) and HDs (n=9) were newly prepared and the level of anti-NS5A-2132 IgG was measured (FIG. 26). […]

[2] abbreviates: out of 60, cut-off 0.093 OD, serum dilution 100:1.

On to YLLPRRGPRL [No. 40], for which, in test [1] (representative patients, FIGS. 1 and 2), the “IgG antibody reactive to the peptide in the serum of single patients” value is recorded as “detected”. Moreover, the “Healthy donors (n = 10) Positive %” value in test [1] (share of 10 healthy donors with serum IgG reactive to the peptide, ELISA, cut-off value 1.83) is reported as 0%. Moreover, the “HCV patients (n = 12) Positive %” value in test [1] (share of 12 HCV patients with serum IgG reactive to the peptide, ELISA, cut-off value 1.83) was 100%. Also, in the test on peptide-reactive IgG, the “IgG level among the 3 groups (CH, LC and HCC patients)” value is reported as “no significant difference in the IgG level among the 3 groups”. Further, the “detection of the anti-peptide antibody by HLA-class IA phenotype” value with peptide-reactive IgG (29 patients: HLA-A2+, A24+, A2-A24-) is listed as “detected in the majority of the patients”. For the same sequence, the “positivity of sera from the other (not HCV) groups” value in the test on peptide-reactive IgG (autoimmune disease, HBV, HTLV-1) is given as “not positive”. Also, the “number of HTLV-1+ subjects with a significant level of anti-peptide IgG” value in the test with peptide-reactive IgG (out of 10 cases) is recorded as 8. For the same sequence, the “number of HCV-positive patients with a significant level of anti-peptide IgG” value in the test on peptide-reactive IgG (setting [2]) amounted to 56. For the same sequence, the “percentage of HCV-positive patients with a significant level of anti-peptide IgG” value in the test on peptide-reactive IgG (setting [2]) stood at 93.3%. Moreover, the “number of patients with the anti-peptide antibody detected” value with peptide-reactive IgG (patients infected with HCV-1b, out of 30) stood at 26; in the test on peptide-reactive IgG (patients infected with HCV-2a, out of 15 (C-35) or 16 (NS5A-2132)) it was 15; in the test with peptide-reactive IgG (patients infected with HCV-2b, out of 3), 3.
